According to ChEMBL document CHEMBL1143583, “Anchor-GRIND: filling the gap between standard 3D QSAR and the GRid-INdependent descriptors” (J Med Chem, 2005):

Target: Acetylcholinesterase (Homo sapiens, UniProt P22303)
Test: Inhibitory concentration against Acetylcholinesterase; (range = 2-20 uM)
Settings: not given

Acetylcholinesterase, sequence (P22303 whole entry): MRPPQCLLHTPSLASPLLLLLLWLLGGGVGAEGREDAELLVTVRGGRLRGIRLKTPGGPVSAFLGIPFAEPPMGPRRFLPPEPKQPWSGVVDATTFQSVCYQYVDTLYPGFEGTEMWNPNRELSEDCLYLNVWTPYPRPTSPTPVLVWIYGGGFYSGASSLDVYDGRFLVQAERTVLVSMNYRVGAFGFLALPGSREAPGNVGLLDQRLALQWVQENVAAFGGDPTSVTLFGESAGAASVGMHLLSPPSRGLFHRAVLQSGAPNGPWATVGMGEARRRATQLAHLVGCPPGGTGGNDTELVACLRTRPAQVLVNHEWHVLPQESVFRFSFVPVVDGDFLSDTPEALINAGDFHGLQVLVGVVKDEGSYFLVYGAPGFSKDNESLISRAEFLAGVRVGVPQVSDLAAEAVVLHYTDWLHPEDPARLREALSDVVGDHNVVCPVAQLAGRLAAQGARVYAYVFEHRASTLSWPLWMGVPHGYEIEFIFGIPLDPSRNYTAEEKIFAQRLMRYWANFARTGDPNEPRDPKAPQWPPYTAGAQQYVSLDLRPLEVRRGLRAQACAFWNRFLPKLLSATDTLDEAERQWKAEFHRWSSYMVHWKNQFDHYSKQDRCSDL

SMILES	IC50 [µM]
O=C1CN(CCN2CCOCC2)C(=O)CN1CCC(c1ccccc1)c1ccccc1	20
COc1ccc(CCN2CC(=O)N(CCc3ccccn3)CC2=O)cc1OC	20
O=C1CN(CCN2CCCC2)C(=O)CN1CCCn1ccnc1	20
CCN(CC)CCN1CC(=O)N(CCc2ccccc2)CC1=O	20
CCN(CC)CCCN1CC(=O)N(C2CC2)CC1=O	20
CC(C)N(CCN1CC(=O)N(CCc2ccc(Cl)cc2Cl)CC1=O)C(C)C	20
CC1CCCCN1CCCN1CC(=O)N(CCc2ccc(F)cc2)CC1=O (stereo not given)	20

Target: Genome polyprotein (Hepatitis C virus genotype 1a (isolate 1) (HCV), UniProt P26664)
Test: Inhibitory concentration against hepatitis C virus NS3 protease (IC50 spans 2.5 log units)
Set-up: species or system Hepacivirus hominis
Settings: read-out: Log 1/IC50 (converted)

Genome polyprotein, sequence (P26664 1027-1657 limits assumed): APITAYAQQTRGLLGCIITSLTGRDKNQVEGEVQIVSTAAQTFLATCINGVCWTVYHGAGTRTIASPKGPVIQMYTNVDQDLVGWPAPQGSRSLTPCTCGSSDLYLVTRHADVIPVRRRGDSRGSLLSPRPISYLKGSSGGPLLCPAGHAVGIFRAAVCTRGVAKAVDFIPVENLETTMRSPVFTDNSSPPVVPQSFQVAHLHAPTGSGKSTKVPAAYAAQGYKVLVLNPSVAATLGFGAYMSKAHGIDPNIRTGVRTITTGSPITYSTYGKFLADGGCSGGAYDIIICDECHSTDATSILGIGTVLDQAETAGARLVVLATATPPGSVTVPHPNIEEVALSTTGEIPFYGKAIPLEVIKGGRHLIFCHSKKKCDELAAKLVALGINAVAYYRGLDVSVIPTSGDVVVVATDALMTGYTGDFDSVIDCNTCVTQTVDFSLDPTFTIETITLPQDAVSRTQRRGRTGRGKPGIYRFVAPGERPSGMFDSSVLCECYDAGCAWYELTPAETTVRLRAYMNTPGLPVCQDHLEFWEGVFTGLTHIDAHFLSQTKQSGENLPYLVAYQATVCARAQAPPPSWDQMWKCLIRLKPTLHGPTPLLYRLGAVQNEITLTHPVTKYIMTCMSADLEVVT

IC50 [µM]	SMILES
79.4	CC(=O)N[C@H](C(=O)N[C@H](C(=O)C1C[C@H](Oc2ccccc2)C[C@H]1C(=O)CC1(C(=O)O)CC1)C(C)C)C1CCCCC1 (stereo not given in full)
50.1	CC(=O)N[C@H](C(=O)N[C@H](C(=O)C1C[C@H](Oc2ccc(Cl)cc2)C[C@H]1C(=O)CC1(C(=O)O)CC1)C(C)C)C1CCCCC1 (stereo not given in full)
158	CC(=O)N[C@H](C(=O)N[C@H](C(=O)C1C[C@H](Oc2ccncc2)C[C@H]1C(=O)CC1(C(=O)O)CC1)C(C)C)C1CCCCC1 (stereo not given in full)
50.1	CC(=O)N[C@H](C(=O)N[C@H](C(=O)C1C[C@H](Oc2cccc(Br)c2)C[C@H]1C(=O)CC1(C(=O)O)CC1)C(C)C)C1CCCCC1 (stereo not given in full)
10	CC(=O)N[C@H](C(=O)N[C@H](C(=O)C1C[C@H](Oc2ccc(I)cc2)C[C@H]1C(=O)CC1(C(=O)O)CC1)C(C)C)C1CCCCC1 (stereo not given in full)
31.6	CC(=O)N[C@H](C(=O)N[C@H](C(=O)C1C[C@H](Oc2cccc(N3CCOCC3)c2)C[C@H]1C(=O)CC1(C(=O)O)CC1)C(C)C)C1CCCCC1 (stereo not given in full)
25.1	CC(=O)N[C@H](C(=O)N[C@H](C(=O)C1C[C@H](Oc2ccccc2Br)C[C@H]1C(=O)CC1(C(=O)O)CC1)C(C)C)C1CCCCC1 (stereo not given in full)
25.1	CC(=O)N[C@H](C(=O)N[C@H](C(=O)C1C[C@H](Oc2ccc(Br)cc2)C[C@H]1C(=O)CC1(C(=O)O)CC1)C(C)C)C1CCCCC1 (stereo not given in full)
100	CC(=O)N[C@H](C(=O)N[C@H](C(=O)C1C[C@H](Oc2ccc(F)cc2)C[C@H]1C(=O)CC1(C(=O)O)CC1)C(C)C)C1CCCCC1 (stereo not given in full)
6.31	CC(=O)N[C@H](C(=O)N[C@H](C(=O)C1C[C@H](Oc2cccc(-c3ccccc3)c2)C[C@H]1C(=O)CC1(C(=O)O)CC1)C(C)C)C1CCCCC1 (stereo not given in full)
200	CC(=O)N[C@H](C(=O)N[C@H](C(=O)C1C[C@H](Oc2cccnc2)C[C@H]1C(=O)CC1(C(=O)O)CC1)C(C)C)C1CCCCC1 (stereo not given in full)
20	CC(=O)N[C@H](C(=O)N[C@H](C(=O)C1C[C@H](Oc2nc3ccccc3s2)C[C@H]1C(=O)CC1(C(=O)O)CC1)C(C)C)C1CCCCC1 (stereo not given in full)

More lines, now with the values behind:

SMILES	IC50 [µM]
COc1ccc2nccc(O[C@H]3CC(C(=O)[C@@H](NC(=O)[C@@H](NC(C)=O)C4CCCCC4)C(C)C)[C@H](C(=O)CC4(C(=O)O)CC4)C3)c2c1 (stereo not given in full)	15.8
CC(=O)N[C@H](C(=O)N[C@H](C(=O)C1C[C@H](Oc2ccc(-c3ccccc3)cc2)C[C@H]1C(=O)CC1(C(=O)O)CC1)C(C)C)C1CCCCC1 (stereo not given in full)	31.6
CC(=O)N[C@H](C(=O)N[C@H](C(=O)C1C[C@H](Oc2ccnc3cc(Cl)ccc23)C[C@H]1C(=O)CC1(C(=O)O)CC1)C(C)C)C1CCCCC1 (stereo not given in full)	2
CC(=O)N[C@H](C(=O)N[C@H](C(=O)C1C[C@H](Oc2nccc3ccccc23)C[C@H]1C(=O)CC1(C(=O)O)CC1)C(C)C)C1CCCCC1 (stereo not given in full)	7.94
CC(=O)N[C@H](C(=O)N[C@H](C(=O)C1C[C@H](Oc2cncc3ccccc23)C[C@H]1C(=O)CC1(C(=O)O)CC1)C(C)C)C1CCCCC1 (stereo not given in full)	3.98
CC(=O)N[C@H](C(=O)N[C@H](C(=O)C1C[C@H](Oc2ccccc2-c2ccc(C(=O)O)cc2)C[C@H]1C(=O)CC1(C(=O)O)CC1)C(C)C)C1CCCCC1 (stereo not given in full)	> 200
CC(=O)N[C@H](C(=O)N[C@H](C(=O)C1C[C@H](Oc2cccc(-c3cccc([N+](=O)[O-])c3)c2)C[C@H]1C(=O)CC1(C(=O)O)CC1)C(C)C)C1CCCCC1 (stereo not given in full)	6.31
CC(=O)N[C@H](C(=O)N[C@H](C(=O)C1C[C@H](Oc2cccc3cccnc23)C[C@H]1C(=O)CC1(C(=O)O)CC1)C(C)C)C1CCCCC1 (stereo not given in full)	251
CC(=O)N[C@H](C(=O)N[C@H](C(=O)C1C[C@H](Oc2ccnc3cc(C(F)(F)F)ccc23)C[C@H]1C(=O)CC1(C(=O)O)CC1)C(C)C)C1CCCCC1 (stereo not given in full)	6.31
CC(=O)N[C@H](C(=O)N[C@H](C(=O)C1C[C@H](Sc2nc3ccccc3s2)C[C@H]1C(=O)CC1(C(=O)O)CC1)C(C)C)C1CCCCC1 (stereo not given in full)	20
COc1ccc2c(O[C@H]3CC(C(=O)[C@@H](NC(=O)[C@@H](NC(C)=O)C4CCCCC4)C(C)C)[C@H](C(=O)CC4(C(=O)O)CC4)C3)ccnc2c1 (stereo not given in full)	0.794
CC(=O)Nc1cccc(-c2cccc(O[C@H]3CC(C(=O)[C@@H](NC(=O)[C@@H](NC(C)=O)C4CCCCC4)C(C)C)[C@H](C(=O)CC4(C(=O)O)CC4)C3)c2)c1 (stereo not given in full)	6.31
CC(=O)N[C@H](C(=O)N[C@H](C(=O)C1C[C@H](Oc2ccccc2-c2ccccc2)C[C@H]1C(=O)CC1(C(=O)O)CC1)C(C)C)C1CCCCC1 (stereo not given in full)	> 200
COc1ccc(-c2ccc(O[C@H]3CC(C(=O)[C@@H](NC(=O)[C@@H](NC(C)=O)C4CCCCC4)C(C)C)[C@H](C(=O)CC4(C(=O)O)CC4)C3)cc2)cc1 (stereo not given in full)	31.6
CC(=O)N[C@H](C(=O)N[C@H](C(=O)C1C[C@H](O)C[C@H]1C(=O)CC1(C(=O)O)CC1)C(C)C)C1CCCCC1 (stereo not given in full)	> 1000
CC(=O)N[C@H](C(=O)N[C@H](C(=O)C1C[C@H](Sc2ccc(Br)cc2)C[C@H]1C(=O)CC1(C(=O)O)CC1)C(C)C)C1CCCCC1 (stereo not given in full)	39.8
CC(=O)N[C@H](C(=O)N[C@H](C(=O)C1C[C@H](Oc2ccnc3ccccc23)C[C@H]1C(=O)CC1(C(=O)O)CC1)C(C)C)C1CCCCC1 (stereo not given in full)	5.01
COc1ccc(-c2ccccc2O[C@H]2CC(C(=O)[C@@H](NC(=O)[C@@H](NC(C)=O)C3CCCCC3)C(C)C)[C@H](C(=O)CC3(C(=O)O)CC3)C2)cc1 (stereo not given in full)	> 200
CC(=O)N[C@H](C(=O)N[C@H](C(=O)C1C[C@H](Oc2ccc(Cl)c3cccnc23)C[C@H]1C(=O)CC1(C(=O)O)CC1)C(C)C)C1CCCCC1 (stereo not given in full)	100
CC(=O)N[C@H](C(=O)N[C@H](C(=O)C1C[C@H](Sc2ccnc3cc(C(F)(F)F)ccc23)C[C@H]1C(=O)CC1(C(=O)O)CC1)C(C)C)C1CCCCC1 (stereo not given in full)	10
CC(=O)N[C@H](C(=O)N[C@H](C(=O)C1C[C@H](Oc2cccnc2-c2ccsc2)C[C@H]1C(=O)CC1(C(=O)O)CC1)C(C)C)C1CCCCC1 (stereo not given in full)	> 200
